Activity calls are given as the source filed them. No cut-off for these calls is given here.
Columns and labels:
[1] = molecular target: T1, Glycogen phosphorylase, muscle form (Oryctolagus cuniculus, UniProt P00489); experiment: Inhibition of rabbit muscle glycogen phosphorylase assessed as release of phosphate from glucose 1 phosphate
T1 sequence (P00489 whole entry): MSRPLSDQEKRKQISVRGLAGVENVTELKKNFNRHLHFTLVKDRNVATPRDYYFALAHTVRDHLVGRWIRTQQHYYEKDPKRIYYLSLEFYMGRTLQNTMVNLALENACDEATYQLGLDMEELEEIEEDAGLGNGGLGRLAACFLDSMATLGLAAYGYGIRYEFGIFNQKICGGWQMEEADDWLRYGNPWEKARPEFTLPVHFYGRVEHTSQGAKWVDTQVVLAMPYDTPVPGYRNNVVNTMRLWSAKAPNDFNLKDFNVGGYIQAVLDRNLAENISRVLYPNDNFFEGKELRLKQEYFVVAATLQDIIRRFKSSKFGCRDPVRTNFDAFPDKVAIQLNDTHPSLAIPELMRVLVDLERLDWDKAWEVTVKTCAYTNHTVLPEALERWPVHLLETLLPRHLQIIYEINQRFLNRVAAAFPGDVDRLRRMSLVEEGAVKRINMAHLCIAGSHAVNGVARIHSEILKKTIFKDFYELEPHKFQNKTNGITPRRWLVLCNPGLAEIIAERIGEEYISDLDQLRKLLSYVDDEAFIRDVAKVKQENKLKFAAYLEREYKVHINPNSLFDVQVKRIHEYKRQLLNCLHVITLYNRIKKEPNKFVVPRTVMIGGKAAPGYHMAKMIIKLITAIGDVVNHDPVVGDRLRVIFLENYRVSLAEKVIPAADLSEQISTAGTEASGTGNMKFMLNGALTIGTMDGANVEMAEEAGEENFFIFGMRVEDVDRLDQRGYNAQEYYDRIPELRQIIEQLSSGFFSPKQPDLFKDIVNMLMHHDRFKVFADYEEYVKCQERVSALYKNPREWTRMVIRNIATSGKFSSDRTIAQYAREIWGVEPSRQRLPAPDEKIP

[2] = molecular target: T2, Glycogen phosphorylase, muscle form (Oryctolagus cuniculus) (UniProt P00489); experiment: Inhibition of rabbit glycogen phosphorylase assessed as release of phosphate from glucose 1 phosphate at 22 mM
T2 sequence (whole entry): T1 sequence (P00489 whole entry)

[3] = molecular target: T2, Glycogen phosphorylase, muscle form (Oryctolagus cuniculus); experiment: Inhibition of rabbit muscle glycogen phosphorylase assessed as release of phosphate from glucose 1 phosphate at 0.222 to 22 mM
[4] = molecular target: T2, Glycogen phosphorylase, muscle form (Oryctolagus cuniculus); experiment: Inhibition of rabbit glycogen phosphorylase assessed as release of phosphate from glucose 1 phosphate at 3 mM
[5] = molecular target: T2, Glycogen phosphorylase, muscle form (Oryctolagus cuniculus); experiment: Inhibition of rabbit glycogen phosphorylase assessed as release of phosphate from glucose 1 phosphate at <=1.4 to 3 mM

Row | SMILES | Activity [3] | other results
1 | O=C(O)c1ccc2c3c1C(=O)N(Cc1ccccc1)C3(O)CCC2 (stereo not drawn) |  | IC50 [1]: 1200 µM; inhibition [2]: 65%
2 | COC(=O)c1ccc2c(c1C(=O)OC)C(=O)CCC2(C)C | inactive | 
3 | COC(=O)c1ccc2c(c1C(=O)OC)C(=O)[C@@H]1O[C@@H]1C2(C)C (racemic) | inactive | 
4 | CCCCCSC(=O)c1c(C(=O)O)ccc2c1C(=O)CCC2 |  | IC50 [1]: 1300 µM; inhibition [2]: 55%
5 | COC(=O)c1ccc2c(c1C(=O)OC)C(=O)CCC2 | inactive | 
6 | O=C(O)c1ccc2c3c1C(=O)N(c1ccccc1)C3(O)CCC2 (stereo not drawn) | inactive | 
7 | O=C(O)c1ccc2c(c1C(=O)N1CCOCC1)C(=O)CCC2 | inactive | 
8 | COC(=O)c1c(C(=O)O)ccc2c1C(=O)CCC2 | inactive | 
9 | O=C(O)c1ccc2c(c1C(=O)O)C(=O)CCC2 | inactive | 
10 | COC(=O)c1ccc2c(c1C(=O)OC)C(=O)C=CC2(C)C | inactive | 
11 | O=C1OC(=O)c2c1ccc1c2C(=O)CCC1 | inactive | 
12 | CC1(C)C=CC(=O)c2c1ccc1c2C(O)OC1=O (stereo not drawn) | inactive | 
13 | COC1OC(=O)c2ccc3c(c21)C(=O)C=CC3(C)C (stereo not drawn) |  | inhibition [4]: 15%
14 | CC1(C)c2ccc3c(c2C(=O)[C@@H]2O[C@@H]21)[C@H](O)OC3=O (racemic) | inactive | Activity [5]: inactive
15 | CC(C)OC(=O)c1c(C(=O)O)ccc2c1C(=O)CCC2 | inactive | 
16 | CO[C@@H]1OC(=O)c2ccc3c(c21)C(=O)[C@@H]1O[C@@H]1C3(C)C (racemic) | inactive | Activity [5]: inactive
17 | O=C(O)c1ccc2c3c1C(=O)N(c1ccccc1)C3=CCC2 |  | IC50 [1]: 800 µM; inhibition [2]: 46%
18 | CCN(CC)C(=O)c1c(C(=O)O)ccc2c1C(=O)CCC2 | inactive | 
19 | COC(=O)c1ccc2c(c1C(=O)OC)C(=O)C(Br)CC2(C)C (stereo not drawn) | inactive | 
20 | CC1(C)CCC(=O)c2c1ccc1c2C(O)OC1=O (stereo not drawn) | inactive | Activity [5]: inactive
21 | CC1(C)C=CC(=O)c2c1ccc(C(=O)O)c2C(=O)O | inactive | 
22 | O=C(O)c1ccc2c(c1C(=O)NCc1ccccc1)C(=O)CCC2 |  | IC50 [1]: 11700 µM; inhibition [2]: 89%
23 | O=C(O)c1ccc2c(c1C(=O)Nc1ccccc1)C(=O)CCC2 | inactive | 
24 | CC1(C)CCC(=O)c2c1ccc(C(=O)O)c2C(=O)O | inactive | 
25 | O=C(O)c1ccc2c3c1C(=O)N(Cc1ccccc1)C3=CCC2 |  | IC50 [1]: 1100 µM; inhibition [2]: 46%

From ChEMBL document CHEMBL1150399, “Evaluation of novel hyphodermin derivatives as glycogen phosphorylase a inhibitors” (Bioorg Med Chem, 2008)
